Experimental data: patent US10166294B2, “Multifunctional forms of polyoxazoline copolymers and drug compositions comprising the same” (priority 2008, dated 2019)
“And” between values parts separate entries of the source, which are not always exact repeats. Equal entries are not always repeated. Where two headings read alike, the source gives them in different places.

Legend:
[1] = tested on: platinum resistant ovarian cancer cells (A2780/DDPt); settings: for Days to 3 Times Tumor Weight: median; for T − C (tumor growth delay): median time to 3 times original size, drug group minus control; for Persistence of tumor growth delay profiles: FIGS. 2A and 2B, dotted lines
Protocol: Female athymic (Ncr:Nu) mice were implanted subcutaneously with A2780/DDPt tumor fragments and the tumors were allowed to reach a weight range of 163 to 189 mg. […] One group of animals was treated with cisplatin at a dose of 8 mg/kg. The control group received normal saline. The animals were weighed and the tumors measured twice weekly after administration of the first drug injection.

[2] = tested on: oropharyngeal carcinoma cancer cells (KB)
Protocol: (§1) Female athymic (Ncr:Nu) mice were implanted subcutaneously with KB tumor fragments and the tumors were allowed to reach a weight range of 160 to 190 mg. […] The control group received normal saline. The animals were weighed and the tumors measured twice weekly after administration of the first drug injection.

[3] = tested on: human colorectal cancer cells (HT-29); settings: for Tumor Regression Complete / Tumor Regression Partial: n=10 mice; for Tumor Regression Complete: complete: unpalpable; for Tumor Regression Partial: partial: <50% of size on day 1; for T − C (tumor growth delay): median time to 2 times original size, drug group minus control; for Days to 2 Times Tumor Weight: median
Protocol: as §1, with “HT-29” for “KB”, “162” for “160”, “188” for “190”

[4] = 40 mg/kg i.v. every fourth day x3
[5] = 60 mg/kg i.v. every fourth day x3
[6] = 90 mg/kg i.v. every fourth day x3
[7] = 40, 60 or 90 mg/kg i.v. every fourth day x3
[8] = all doses (40, 60, 90 mg/kg i.v.)
[9] = any of the doses (40, 60, 90 mg/kg)

N.N.[Cl][Pt][Cl] [Cisplatin]
Days to 3 Times Tumor Weight ([1]; 8 mg/kg): 8.9 days
T − C (tumor growth delay) ([1]; 8 mg/kg): 0.5 days

CCc1c2c(nc3ccc(OC(=O)N4CCC(N5CCCCC5)CC4)cc13)-c1cc3c(c(=O)n1C2)COC(=O)[C@]3(O)CC [Irinotecan]
Days to 3 Times Tumor Weight [1, 4]: 13.0 days
T − C (tumor growth delay) ([1]; 40 mg/kg): 4.6 days
Days to 3 Times Tumor Weight [1, 5]: 16.4 days
T − C (tumor growth delay) ([1]; 60 mg/kg): 8.0 days
Days to 3 Times Tumor Weight [1, 6]: 18.6 days
T − C (tumor growth delay) ([1]; 90 mg/kg): 10.2 days
Decrease in tumor growth compared to the control group ([1]; 40, 60, 90 mg/kg groups): did not show a statistically significant decrease
Maximum loss in body weight [1, 7]: 2%
Persistence of tumor growth delay profiles [1]: 14 days
Tolerability [1, 8]: well tolerated
Tolerability [2, 8]: well tolerated
Tumor regression [2, 9]: not observed
Maximum loss in body weight ([2]; mouse, in vivo): 2%
Tumor Regression Complete [3, 4]: 0
Tumor Regression Partial [3, 4]: 0
T − C (tumor growth delay) ([3]; 40 mg/kg): 8.8 days
Days to 2 Times Tumor Weight [3, 5]: 21.4 days
Tumor Regression Complete [3, 5]: 0
Tumor Regression Partial [3, 5]: 0
Tumor Regression Complete [3, 6]: 0
Tumor Regression Partial [3, 6]: 0
Decrease in tumor growth compared to the control group ([3]; 40, 60, 90 mg/kg groups): did not show a statistically significant decrease
Maximum loss in body weight [3, 7]: 8%
Tolerability [3, 8]: well tolerated
Tumor regression [3, 9]: not observed

H-(Irino.HCl)10(EOZ)190-T-Folate [Folate-POZ-irinotecan]
Complete tumor regression, share of mice ([2]; mouse, in vivo): 70% and 50%
Complete tumor regression, share of treated mice ([2]; mouse, in vivo): > 50%
Tumor growth delay (T-C value) compared to irinotecan ([2]; mouse, in vivo): significantly higher

H-(Irino.HCl)10(EOZ)200-T-PA [POZ-irinotecan]
Days to 3 Times Tumor Weight [1, 4]: 12.7 days
T − C (tumor growth delay) ([1]; 40 mg/kg): 4.3 days
Days to 3 Times Tumor Weight [1, 5]: 20.3 days
T − C (tumor growth delay) ([1]; 60 mg/kg): 11.9 days
Tumor growth delay (T-C value) compared to irinotecan ([1]; 90 mg/kg dose, p<0.001): significantly higher
Days to 3 Times Tumor Weight [1, 6]: 36.3 days
T − C (tumor growth delay) ([1]; 90 mg/kg): 27.9 days
Persistence of tumor growth delay profiles [1]: at least 32 days
Days to 2 Times Tumor Weight [3, 4]: 31.4 days
Tumor Regression Complete [3, 4]: 0
T − C (tumor growth delay) ([3]; 40 mg/kg): 23.4 days
Median Duration of Regression [3, 5]: 18 days
Days to 2 Times Tumor Weight [3, 5]: >60.0 days
Tumor Regression Complete [3, 5]: 1
T − C (tumor growth delay) ([3]; 60 mg/kg): >52 days
Median Duration of Regression [3, 6]: 25 days
Days to 2 Times Tumor Weight [3, 6]: >60.0 days
Tumor Regression Complete [3, 6]: 7
T − C (tumor growth delay) ([3]; 90 mg/kg): >52 days
Tumor growth delay (T-C value) compared to irinotecan ([3]; all 3 doses tested, p<0.001): significantly higher
